Earlier results as cited in EP0656010B1, “Use of peptides causing a immune response for the preparation of medicaments to induce the suppression of the immune reaction” (priority 1992, dated 2001).

System: sujets infectés par les VIH-1
Details: subjects infected with HIV-1

GGEFFYCNSTQL
réponse immunitaire cellulaire dirigée contre le peptide: réponse immunitaire cellulaire

SVEINCTRPNNNTRKSI
réponse immunitaire cellulaire dirigée contre le peptide: réponse immunitaire cellulaire
